Reference: paper PMC8998618, “A Pharmacokinetic and Metabolism Study of the TRPC6 Inhibitor SH045 in Mice by LC-MS/MS” (International Journal of Molecular Sciences, 2022)
Values joined by “and” are separate entries in the source; they are usually repeats but may differ in a detail not shown here. Identical values can stand only once.

Tests used:
[1] = appearance of SH045 in urine after i.v. administration; assay type: in vivo, mice; conditions: 20 mg/kg BW i.v.
Description: Mouse renal elimination of SH045 was exploratorily monitored up to their first spontaneous micturition after i.v. administration (20 mg/kg BW). Samples of released urine were assigned to micturition periods of 10–30, 60–80, or 100–120 min following application. Mean urine concentrations of unmetabolized SH045 of 748 ± 31 (n = 3), 1056 ± 104 (n = 3), and 162 ± 17 nM (n = 6), respectively, were recorded.
Via heparin-coated catheters a maximum of 50 µL blood was collected from the tail vein at 0.25, 0.5, 1, 2, 3, 4, 6, 8, or 24 h after administration and immediately centrifuged at 4000× g at 4 °C for 10 min. For repeated administration 20 mg/kg BW SH045 were administered at 8:00 a.m. on five consecutive days, once a day. Blood was taken 1 h and 24 h after drug administration. Tissue samples were harvested from isoflurane-euthanized animals at indicated time points. Mice were transcardially perfused with PBS and dissected tissues were washed to remove remaining blood. Plasma and tissue samples were stored at −80 °C until analysis. Urine was collected by bladder puncture at indicated time points.
For tissue analysis, homogenates (10% in phosphate-buffered saline, PBS) were prepared. Homogenate, plasma, and urine were mixed with IS and extracted with ice-cold ACN, centrifuged, filtered and stored in the autosampler at 6 °C until analysis in duplicates by LC-MS/MS (details in Supplementary Materials SM4).

liver, kidney and lung = assay: histopathological examination of tissue after administration of SH045; assay type: in vivo, mice; conditions: 20 mg/kg BW i.v., single and repeated (5 days); hematoxylin-eosin
Excerpt: Liver, kidney, and lung were collected after repeated administration, fixed and processed for inspection for histopathological alterations (Supplementary Materials SM3).
Larixyl-N-methylcarbamate ((1S,4S,4aR,8aS)-4-((S)-3-hydroxy-3-methylpent-4-en-1-yl)-4a,8,8-trimethyl-3-methylenedeca-hydro-naphthalen-1-yl methylcarbamate, SH045, TRPC6 inhibitor) was synthesized as described by Häfner et al. [1]. (+)-Larixol (internal standard, IS) was isolated from Larix decidua turpentine [2]. Kolliphor® EL was obtained from Caelo (Hilden, Germany). Acetonitrile (ACN), water, and formic acid (LC -MS grade each) were purchased from Fisher Scientific (Schwerte, Germany). […]
SM2 Quantification of SH045 by HPLC and tandem mass spectrometric methods (LC-MS/MS) In brief, chromatographic separation was achieved using a Zorbax Eclipse XDB-C8 column (100 × 3.0 mm, 3.5 μm 80 Å, Agilent Technologies) with linear gradient elution using water and ACN, each with 0.1 % formic acid as additive, during a total run time of 20 min. For quantification (+)-larixol was used as IS. […] Freshly prepared calibration samples for SH045 in plasma and tissue comprised eight concentration levels analyzed in duplicates (2, 5, 10, 100, 200, 800, 1200 and 1600 ng/mL). […]

[2] = system: ischemic lungs explanted from mice; set-up: method as in PMID 29522264; conditions: ex vivo; cited from earlier work

C=C[C@@](C)(O)CC[C@H]1C(=C)C[C@H](OC(=O)NC)[C@H]2C(C)(C)CCC[C@]12C [SH045, (1S,4S,4aR,8aS)-4-((S)-3-Hydroxy-3-methylpent-4-en-1-yl)-4a,8,8-trimethyl-3-methylenedecahydronaphthalen-1-yl methylcarbamate]
urine concentration after 2 h relative to IC50 reported in vitro [1]: about 30 fold | mean urine concentration of unmetabolized SH045 ([1]; micturition period 10–30 min): 748 ± 31 nM | mean urine concentration of unmetabolized SH045 ([1]; micturition period 60–80 min): 1056 ± 104 nM | mean urine concentration of unmetabolized SH045 ([1]; micturition period 100–120 min): 162 ± 17 nM and 160 nM | histopathological changes in liver, kidney and lung (liver, kidney and lung): no histopathological changes were observed | edema formation after reperfusion [2]: reduced edema formation
